Values of other authors as cited in patent US20130122099A1, “POLYETHYLENE GLYCOL-COATED SODIUM CARBONATE AS A PHARMACEUTICAL EXCIPIENT AND COMPOSITIONS PRODUCED FROM THE SAME” (priority 2008, published 2013).

Settings: not given

Structure (SMILES) | pKa
O=C1CC2(CCCC2)CC(=O)N1CCCCN1CCN(c2ncccn2)CC1 [Buspirone] | 7.2
COc1cc(N)c(Cl)cc1C(=O)NC1CCN(CCCOc2ccc(F)cc2)CC1OC (stereo not shown) [Cisapride] | 7.83
CN1CCN(C(c2ccccc2)c2ccccc2)CC1 [Cyclizine] | 7.7
CCCCOc1cc(C(=O)NCCN(CC)CC)c2ccccc2n1 [Dibucaine] | 8.5
CN(C)CCC=C1c2ccccc2COc2ccccc21 [Doxepin] | 8.2
CNCCC(Oc1ccc(C(F)(F)F)cc1)c1ccccc1 (stereo not shown) [Fluoxetine] | 8.7
CN1C2CCCC1CC(NC(=O)c1nn(C)c3ccccc13)C2 (stereo not shown) [Granisetron] | 9.4
O=c1[nH]c(=O)n([C@H]2C[C@H](O)[C@@H](CO)O2)cc1I [Idoxuridine] | 8.3
CN1CCC(=C2c3ccccc3CC(=O)c3sccc32)CC1 [Ketotifen] | 8.75
CC(CCc1ccccc1)NCC(O)c1ccc(O)c(C(N)=O)c1 (stereo not shown) [Labetalol] | 8.7
CN1CCCCC1CCN1c2ccccc2Sc2ccc([S+](C)[O-])cc21 (stereo not shown) [Mesoridazine] | 8.2
CC(=O)/N=c1/sc(S(N)(=O)=O)nn1C [Methazolamide] | 7.3
CN1CCN2c3ccccc3Cc3ccccc3C2C1 (stereo not shown) [Mianserine] | 8.3
CN1CCN2c3ncccc3Cc3ccccc3C2C1 (stereo not shown) [Mirtazapine] | 7.7
C=CCN1CC[C@]23c4c5ccc(O)c4O[C@H]2C(=O)CC[C@@]3(O)[C@H]1C5 [Naloxone] | 7.82
OC(CNCC(O)C1CCc2cc(F)ccc2O1)C1CCc2cc(F)ccc2O1 (stereo not shown) [Nebivolol] | 8.6
COc1ccc2c(c1OC)C(=O)O[C@@H]2[C@H]1c2c(cc3c(c2OC)OCO3)CCN1C [Noscapine] | 7.8
Cc1nccn1CC1CCc2c(c3ccccc3n2C)C1=O (stereo not shown) [Ondansetron] | 7.7
CCN(CC)CCCC(C)Nc1cc(OC)cc2cccnc12 (stereo not shown) [Pamaquine] | 8.7
N#Cc1ccc2c(c1)N(CCCN1CCC(O)CC1)c1ccccc1S2 [Periciazine] | 8.3
OCCN1CCN(CCCN2c3ccccc3Sc3ccc(Cl)cc32)CC1 [Perphenazine] | 7.94
CC[C@@H]1C(=O)OC[C@@H]1Cc1cncn1C [Pilocarpine] | 6.6
Cc1ccc2c(c1)c1c3n2CCNC3CCC1 (stereo not shown) [Pirlindole] | 7.7

Structure (SMILES) | pKa
CN[C@H]1CC[C@@H](c2ccc(Cl)c(Cl)c2)c2ccccc21 [Sertraline] | 9.4
Cc1ccnc(NS(=O)(=O)c2ccc(N)cc2)n1 [Sulfamerazine] | 8.0
Cc1cc(C)nc(NS(=O)(=O)c2ccc(N)cc2)n1 [Sulfamethazine] | 7.4
CCN(CC)C(=O)N[C@H]1C[C@@H]2c3cccc4[nH]cc(c34)C[C@H]2N(C)C1 [Terguride] | 7.2
CC(C)(C)NC[C@H](O)COc1nsnc1N1CCOCC1 [Timolol] | 9.2
Clc1ccc2nsnc2c1NC1=NCCN1 [Tizanidine] | 9.0
CC1(C)S[C@@H]2[C@H](NC(=O)[C@H](N)c3ccc(O)cc3)C(=O)N2[C@H]1C(=O)O [amoxicillin] | 7.4
c1ccc(CN(CC2=NCCN2)c2ccccc2)cc1 [antazoline] | 7.2
CN1CCN(C(c2ccccc2)c2ccc(Cl)cc2)CC1 (stereo not shown) [chlorcyclizine] | 9.65
CN(C)CCOC(=O)C(c1ccccc1)C1(O)CCCC1 (stereo not shown) [cyclopentolate] | 7.9
O=C1CN(/N=C/c2ccc(-c3ccc([N+](=O)[O-])cc3)o2)C(O)=N1 [dantrolene] | 7.5
COc1cccc2c1C(=O)c1c(O)c3c(c(O)c1C2=O)C[C@@](O)(C(C)=O)C[C@@H]3O[C@H]1C[C@H](N)[C@H](O)[C@H](C)O1 [daunomycin] | 8.2
CCC1(C)CC(=O)NC1=O (stereo not shown) [ethosuximide] | 9.3
O=C1NCN(c2ccccc2)C12CCN(CCCC(c1ccc(F)cc1)c1ccc(F)cc1)CC2 [fluspirilene] | 7.32
NS(=O)(=O)c1cc2c(cc1C(F)(F)F)NCNS2(=O)=O [hydroflumethiazide] | 8.9
OCCOCCN1CCN(C(c2ccccc2)c2ccc(Cl)cc2)CC1 (stereo not shown) [hydroxyzine] | 7.1
CCC[C@@H]1C[C@@H](C(=O)N[C@@H]([C@H]2O[C@H](SC)[C@H](O)[C@@H](O)[C@H]2O)[C@@H](C)O)N(C)C1 [lincomycin] | 7.5
CCC1(c2ccccc2)NC(=O)N(C)C1=O (stereo not shown) [mephenytoin] | 8.33
COc1ccc(CN(CCN(C)C)c2ccccn2)cc1 [mepyramine] | 8.9
CCn1cc(C(=O)O)c(=O)c2cc(F)c(N3CCNCC3)cc21 [norfloxacin] | 8.75
OC1(c2ccc(Cl)c(C(F)(F)F)c2)CCN(CCCC(c2ccc(F)cc2)c2ccc(F)cc2)CC1 [penfluridol] | 8.0
CN1C(=O)CC(c2ccccc2)C1=O (stereo not shown) [phensuximide] | 9.2

Same assay, conditions: listed as daunorubicin

Structure (SMILES) | pKa
COc1cccc2c1C(=O)c1c(O)c3c(c(O)c1C2=O)C[C@@](O)(C(C)=O)C[C@@H]3O[C@H]1C[C@H](N)[C@H](O)[C@H](C)O1 [daunomycin] | 8.25
